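Dose response: 5 concentrations. Exposure: 48 h. Format: 96-well plates. Endpoint: linear interpolation; highest concentration if not reached. GI50 is the concentration that inhibits growth by half. Definition used: TGI = concentration required for complete inhibition of growth.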
Key:
Test in all cases: NCI-60 cell line screen, 48 h
[1] = system: SN12C renal
[2] = system: OVCAR-4 ovarian
[3] = system: HCT-15 colon
[4] = system: U251 CNS
[5] = system: OVCAR-5 ovarian
[6] = system: HT29 colon
[7] = system: DU-145 prostate
[8] = system: MCF7 breast
[9] = system: SK-MEL-2 melanoma
[10] = system: UO-31 renal

Structure (SMILES)	GI50 [1] [µM]	TGI [1] [µM]	GI50 [2] [µM]	TGI [2] [µM]	GI50 [3] [µM]	TGI [3] [µM]	GI50 [4] [µM]	TGI [4] [µM]	GI50 [5] [µM]	TGI [5] [µM]	GI50 [6] [µM]	TGI [6] [µM]	GI50 [7] [µM]	TGI [7] [µM]	GI50 [8] [µM]	TGI [8] [µM]	GI50 [9] [µM]	TGI [9] [µM]	GI50 [10] [µM]	TGI [10] [µM]
C=C(NC(=O)C(=C)NC(=O)c1csc(C2=NC3c4csc(n4)C4NC(=O)c5csc(n5)C(C(C)(O)C(C)O)NC(=O)C5CSC(=N5)C(=CC)NC(=O)C(C(C)O)NC(=O)c5csc(n5)C3(CC2)NC(=O)C(C)NC(=O)C(=C)NC(=O)C(C)NC(=O)C(C(C)CC)NC2C=Cc3c(C(C)O)cc(nc3C2O)C(=O)OC4C)n1)C(N)=O (stereo not given)	19.6	> 100	9.45	> 100	65.6	> 100	9.37	31.8	25.5	79.9	10.4	> 100	58.7	> 100	5.7	> 100	19	> 100	11.4	> 100
O=c1cc(N2CCN(CCCCCOc3cc(O)c4c(=O)cc(-c5ccccc5)oc4c3)CC2)c2ccccc2o1	45.4	> 100	62.7	> 100	> 100	> 100	> 100	> 100	> 100	> 100	17.4	> 100	89	> 100	83.1	> 100	> 100	> 100	50.8	> 100
C[C@]12CC[C@@H]3c4cc(-c5ccc(F)cc5)c(O)cc4CC[C@H]3[C@@H]1CC[C@@H]2O	10	22.4	4.04	17.1	5.61	18.8	5.54	17.9	19.1	39.2	6.54	20.2	12.5	25	5.21	18.6	5.81	19.8	7.01	21.6

From PubChem BioAssay (NCI)
